Experimental data taken from BindingDB's records for doi:10.1021/acs.jmedchem.5b02042 (University of South Florida, 2016).

Biological target: Stromal cell-derived factor 1 (Homo sapiens, UniProt P48061)
Test: Binding affinity to His6-SUMO fusion tagged wild type human [U-15N]CXCL12 expressed in Escherichia coli by 2D 1H-15N HMQC NMR spectroscopy

Sequence of Stromal cell-derived factor 1 (P48061 whole entry, the tested form may be a part): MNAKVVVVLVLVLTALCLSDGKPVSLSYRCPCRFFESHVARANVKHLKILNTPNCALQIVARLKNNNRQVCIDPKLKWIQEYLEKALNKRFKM

Kd	SMILES
1100 µM	CCCOc1ccc(C(Nc2ccc(F)cc2)P(=O)(O)O)cc1 (configuration not stated)
4100 µM	O=C(O)CC1c2ccccc2CCN1C(=O)Nc1cccc(F)c1 (configuration not stated)
